Results taken from patent publication US20260355080A1, “COSMETIC COMPOSITION FOR PREVENTING OR AMELIORATING SKIN DISEASES, COMPRISING MORUS ALBA-DERIVED COMPOUND AS ACTIVE INGREDIENT” (DONGGUK UNIVERSITY INDUSTRY-ACADEMIC COOPERATION FOUNDATION, priority 2022, published 2026).

Legend:
Format in all cases: cell-based
[1] = tested on: p16 (Ink4a); test: Western blot of p16 (Ink4a) expression in keratinocytes (anti-aging effect); conditions: 10 μM, 48 hours, P<0.05 significant, FIG. 4
Method: Keratinocytes used were isolated from normal adult skin tissues obtained through repeated cesarean section and circumcision. The cells were dispensed into EpiLife Medium, and bovine pituitary extract (BPE), bovine insulin (BI), hydrocortisone, human epidermal growth factor (EGF), and bovine transferrin (BT) were added and cultured. The cells that had undergone the 3rd~5th passage culture were used in the experiment. The pituitary extract, bovine insulin, hydrocortisone, human epidermal growth factor, and bovine transferrin were used by purchasing from Invitrogen.
(§1) In order to identify the skin whitening and anti-aging effects of 16 candidate materials in Example 1-2, for the skin whitening effect, each of the three types of cell models constructed in the Example 2-1 was treated with the 16 candidate materials at concentrations at which no cytotoxicity is shown in the melanocytes identified in Example 1-1 for 48 hours, and then Western blot was performed to measure the expression of tyrosinase. The experiment was repeated 4 times, and P<0.05 was determined to be significant. In addition, for analysis on the anti-aging effect, the keratinocytes were treated with the above 16 candidate materials for 48 hours each, and then Western blot was performed to measure the expression of p16 (Ink4a). The experiment was repeated 4 times, and P<0.05 was determined to be significant.

[2] = tested on: tyrosinase; test: Western blot of tyrosinase expression in ARG2 overexpressing keratinocyte/melanocyte co-cultured cell model; conditions: 10 μM, 48 hours, P<0.05 significant, FIG. 3
Method: (§2) Keratinocytes were seeded in a culture container at 2×10^5/ml, after 24 hours, pCMV plasmids containing one of three genes [arginase 2 (ARG2, NCBI Gene ID: 384), cadherin 11 (CDH11, NCBI Gene: 1009), and guanine deaminase (GDA, NCBI Gene: 9615)] were transfected into cells using Lipofectamine 2000 to induce overexpression, and after 4 hours of culture with Dulbecco's Modified Essential Medium (DMEM) culture medium without supplements, 0.5×10^5/ml melanocytes were mixed with the keratinocyte culture medium containing supplements and co-cultured in the same culture container. After 24 hours, the keratinocyte culture medium without supplements was replaced, and after 5 hours, the normal melanocytes were treated with the 16 candidate materials for 48 hours. […]
as §1, with “In addition, for analysis on the anti-aging effect, the keratinocytes were treated with the above 16 candidate materials for 48 hours each, and then Western blot was performed to measure the expression of p16 (Ink4a).” left out

[3] = tested on: tyrosinase; test: Western blot of intracellular tyrosinase expression in melanocytes (skin whitening effect); conditions: 10 μM M55 (other candidates at non-cytotoxic concentration), 48 hours, FIG. 2
Method: (§3) Melanocytes used were isolated from normal adult skin tissues obtained through repeated cesarean section and circumcision. Dispase 2.4U (#295 825; Roche, Mannheim, Germany) was treated for 1 hour to separate the epidermis, and 0.05% trypsin was treated for 10 minutes to isolate melanocytes. Afterwards, the cells were suspended in Medium 254, and the bovine pituitary extract (BPE), fetal bovine serum (FBS), hydrocortisone, basic fibroblast growth factor (bFGF), bovine transferrin (BT), heparin, and phorbol 12-myristate13-acetate (PMA, Invitrogen) were added and cultured. The cells that had undergone the 3rd~5th passage culture were used in the experiment.
In order to identify the skin whitening effect of the 136 candidate materials, Western blot was performed. After treating melanocytes with the candidate material at a concentration at which no cytotoxicity was shown in the melanocytes identified in Example 1-2 for 48 hours, intracellular tyrosinase expression was measured. The experiment was repeated 4 times or more.

[4] = tested on: tyrosinase; p16 (Ink4a); test: Combined analysis of skin whitening (tyrosinase expression, co-cultured cell models) and anti-aging (p16 expression, keratinocytes) effects; conditions: 16 candidate materials tested, 48 hours
Method: as §2
as §1, with “In addition, for analysis on the anti-aging effect, the keratinocytes were treated with the above 16 candidate materials for 48 hours each, and then Western blot was performed to measure the expression of p16 (Ink4a).” left out

[5] = tested on: tyrosinase; test: Western blot of tyrosinase expression in GDA overexpressing keratinocyte/melanocyte co-cultured cell model; conditions: 10 μM, 48 hours, P<0.05 significant, FIG. 3
Method: as §2
as §1, with “In addition, for analysis on the anti-aging effect, the keratinocytes were treated with the above 16 candidate materials for 48 hours each, and then Western blot was performed to measure the expression of p16 (Ink4a).” left out

[6] = tested on: tyrosinase; test: Western blot of tyrosinase expression in CDH11 overexpressing keratinocyte/melanocyte co-cultured cell model; conditions: 10 μM, 48 hours, FIG. 3
Method: as §2
as §1, with “In addition, for analysis on the anti-aging effect, the keratinocytes were treated with the above 16 candidate materials for 48 hours each, and then Western blot was performed to measure the expression of p16 (Ink4a).” left out

[7] = tested on: tyrosinase; test: Western blot of tyrosinase expression in control gene overexpressing (pCMV) keratinocyte/melanocyte co-cultured cell model; conditions: control gene overexpressing co-cultured cell model (pCMV, of the CDH11 experiment), 10 μM, 48 hours; FIG. 3
Method: as §2
as §1, with “In addition, for analysis on the anti-aging effect, the keratinocytes were treated with the above 16 candidate materials for 48 hours each, and then Western blot was performed to measure the expression of p16 (Ink4a).” left out

[8] = MTT cytotoxicity assay in melanocytes; conditions: human, tested at 10, 50, and 100 μM, FIG. 1, read-out: treatment concentration up to which no cytotoxicity was shown
Method: as §3
In order to identify cytotoxicity of the 136 candidate materials, MTT assays were performed. Melanocytes were treated with the candidate materials by concentration (10, 50, and 100 μM) for 48 hours, and the cell viability was measured to determine the concentration range at which no cytotoxicity of each candidate material is observed.

COC(=O)C[C@@H](O)CC(=O)O [M55]
p16 (Ink4a) expression compared to the control group [1]: significantly reduced | tyrosinase expression compared to the control group [2]: significant decrease | tyrosinase expression compared to the control group [3]: significantly reduced | skin whitening and anti-aging effects shown together [4]: skin whitening and anti-aging effects were shown together | tyrosinase expression compared to the control group [5]: significant decrease | tyrosinase expression compared to the control group [6]: reduced | tyrosinase expression compared to the control group [7]: increased | MNTC at 48 h [8]: ≥ 10 µM
